The source of these data is patent publication US20250325525A1, “GLP1 TABLET COMPOSITIONS” (Eli Lilly and Company, priority 2022, published 2025).

The data set can be described thus: Twenty-four hour aqueous solubility at 25° C. In kind it is physicochemical. Conditions: thermodynamic from solid, crystalline. The method, then:
Twenty-four Hour Aqueous Solubility of Crystalline GLP1RA-Ca at 25° C.
Twenty-Four Hour Aqueous Solubility of Preparation 3 SDD at 25° C.

Bounds are passed on as bounds.

For the molecule `Cc1cc(-n2nc3c(c2-n2ccn(-c4ccc5c(cnn5C)c4F)c2=O)[C@H](C)N(C(=O)c2cc4cc([C@H]5CCOC(C)(C)C5)ccc4n2[C@@]2(c4noc(=O)[nH]4)C[C@@H]2C)CC3)cc(C)c1F` [GLP1RA-Ca, 3-[(1S,2S)-1-[5-[(4S)-2,2-dimethyloxan-4-yl]-2-[(4S)-2-(4-fluoro-3,5-dimethylphenyl)-3-[3-(4-fluoro-1-methylindazol-5-yl)-2-oxoimidazol-1-yl]-4-methyl-6,7-dihydro-4H-pyrazolo[4,3-c]pyridine-5-carbonyl]indol-1-yl]-2-methylcyclopropyl]-4H-1,2,4-oxadiazol-5-one, 0.5 Ca hydrate], the solubility at 24 h reads like this: (aqueous buffer, pH 4.5 acetate buffer (USP), media pH 4.5) under 1 µg/mL; (aqueous buffer, pH 6.0 phosphate buffer (USP), media pH 5.99) under 1 µg/mL; (aqueous buffer, pH 7.5 phosphate buffer (USP), media pH 7.44) 3 µg/mL; (fassif, Fasted state simulated intestinal fluid, media pH 6.49) 2 µg/mL; (fessif, Fed state simulated intestinal fluid, media pH 4.93) 13 µg/mL; (simulated gastric fluid, 0.01N HCl, media pH 1.98) under 1 µg/mL. Moreover, the solubility at 24 h was under 1 µg/mL (simulated gastric fluid, 0.1N HCl, media pH 1.01); 3 µg/mL (Simulated gastric fluid, media pH 1.97); 28 µg/mL (Water, media pH not measured).

A word on the solubility: it is the dissolved amount per volume that the medium holds. A low value points to little dissolved substance.
